The text below walks through data of patent US6730660B2, “Peritoneal dialysis solutions with polypeptides” (Baxter International Inc., priority 1992, dated 2004).

This data set deals with albino guinea pigs. Description: Dermal sensitization study: intradermal induction with Freund's Complete Adjuvant, then intradermal challenge. It counts as in vivo, guinea pig.

Description: The study was conducted using 10 test animals and four naive control animals per test or positive control material. On Day 1, animals in each test group received duplicate 0.05-mL intradermal injections of a 1:1 ratio of Freund's Complete Adjuvant in sterile water, the respective test material, and a 1:1 ratio of the respective test material in Freund's Complete Adjuvant.
For the positive control group, the animals received duplicate 0.05-mL intradermal injections of a 1:1 ratio of Freund's Complete Adjuvant in sterile water, a 5% w/v suspension of sulfathiazole in sterile water, and a 5% w/v suspension of sulfathiazole in Freund's Complete Adjuvant.
On day 7, animals in all three test groups and the positive control group were pretreated with 10% w/w sodium lauryl sulfate in petrolatum applied topically at the shaved area of the Day 1 intradermal injections. On Day 8, the respective test or positive control material was injected intradermally at a volume of 0.05 mL into two separate areas located just posterior to the initial intradermal injections.
All the test materials were administered undiluted and the positive control was administered as a 5% w/v suspension of sulfathiazole in sterile water. All naive control animals were not treated during the induction phase.
Two weeks following the Day 8 intradermal injections, all animals in the respective test and naive control groups received a challenge intradermal injection. The respective undiluted test material was injected intradermally at a volume of 0.05-mL into one site on the shaved right flank of each respective animal. The positive control animals were treated with a 1% w/v suspension of sulfathiazole in sterile 0.9% saline. The sites were examined for erythema and edema at 24, 48, and 72 hours following injection.
Young adult albino guinea pigs, Hra:(DH)SPF, were procured, maintained individually in screen-bottom stainless steel cages in temperature- and humidity-controlled rooms, provided continuous access to Certified Guinea Pig Chow® 5026, Purina Mills, Inc., and water and held for an acclimation period of at least 7 days. If variations from the prescribed environmental conditions existed, they were documented and considered to have no effect on the study outcome. No contaminants were expected to have been present in the feed or water which would have interfered with or affected the results of the study.
Intradermal Injections (Day 1) A 4-cm×6-cm area was clipped along the midline over the shoulder region of each animal in the test and positive control groups. Six intradermal injections were made within the boundaries of a 2-cm×4-cm area, one row of three injections on each side of the midline as follows: […]

`Nc1ccc(S(=O)(=O)Nc2nccs2)cc1` [Sulfathiazole]: the “dermal reactions at challenge” value (Day 22 intradermal challenge 0.05 mL, examined at 24, 48 and 72 hours) is on record as “Dermal sensitization responses were observed”. Also, under “animal E17221, Group 11, third week of the study”, the “body weight loss of one animal” value came out at 76 g. Also, the “Classification (sensitizer)” value (guinea pig, after intradermal challenge) is recorded as “Sensitizer”. The “# of Positive Reactions/# in Group” value (test or positive control groups, after intradermal challenge) is given as 9/10.
